≈ marks a conversion by molar mass, not a printed value. Calls of active or inactive are those of the source. The rule behind the calls is not given here.
What was measured:
[1] = test system: Candida albicans; assay: Antifungal activity against Candida albicans assessed as growth inhibition at 30 ug/disk measured after 24 to 48 hrs by agar disk diffusion method; assay type: functional, organism-based
[2] = test system: Bacillus cereus; assay: Antibacterial activity against Bacillus cereus assessed as growth inhibition measured after 24 to 48 hrs by agar disk diffusion method in presence of 24.4 Gy gamma-irradiation; assay type: functional
[3] = test system: Bacillus cereus; assay: Antibacterial activity against Bacillus cereus assessed as growth inhibition measured after 24 to 48 hrs by agar disk diffusion method in absence of 24.4 Gy gamma-irradiation; assay type: functional
[4] = test system: Staphylococcus epidermidis; assay: Antibacterial activity against Staphylococcus epidermidis assessed as growth inhibition measured after 24 to 48 hrs by agar disk diffusion method in presence of 24.4 Gy gamma-irradiation; assay type: functional
[5] = test system: Staphylococcus epidermidis; assay: Antibacterial activity against Staphylococcus epidermidis assessed as growth inhibition measured after 24 to 48 hrs by agar disk diffusion method in absence of 24.4 Gy gamma-irradiation; assay type: functional
[6] = test system: Staphylococcus aureus; assay: Antibacterial activity against Staphylococcus aureus assessed as growth inhibition measured after 24 to 48 hrs by agar disk diffusion method in presence of 24.4 Gy gamma-irradiation; assay type: functional
[7] = test system: Staphylococcus aureus; assay: Antibacterial activity against Staphylococcus aureus assessed as growth inhibition measured after 24 to 48 hrs by agar disk diffusion method in absence of 24.4 Gy gamma-irradiation; assay type: functional
[8] = test system: Bacillus cereus; assay: Antibacterial activity against Bacillus cereus assessed as growth inhibition measured after 24 to 48 hrs by agar disk diffusion method; assay type: functional
[9] = test system: Staphylococcus epidermidis; assay: Antibacterial activity against Staphylococcus epidermidis assessed as growth inhibition measured after 24 to 48 hrs by agar disk diffusion method; assay type: functional
[10] = test system: Staphylococcus aureus; assay: Antibacterial activity against Staphylococcus aureus assessed as growth inhibition measured after 24 to 48 hrs by agar disk diffusion method; assay type: functional
[11] = test system: Klebsiella pneumoniae; assay: Antibacterial activity against Klebsiella pneumoniae assessed as growth inhibition measured after 24 to 48 hrs by agar disk diffusion method; assay type: functional, organism-based
[12] = test system: Pseudomonas aeruginosa; assay: Antibacterial activity against Pseudomonas aeruginosa assessed as growth inhibition measured after 24 to 48 hrs by agar disk diffusion method; assay type: functional, organism-based
[13] = test system: Candida albicans; assay: Antifungal activity against Candida albicans assessed as growth inhibition measured after 24 to 48 hrs by agar disk diffusion method; assay type: functional, organism-based
[14] = test system: Bacillus cereus; assay: Antibacterial activity against Bacillus cereus assessed as growth inhibition at 30 ug/disk measured after 24 to 48 hrs by agar disk diffusion method in presence of 24.4 Gy gamma-irradiation; assay type: functional; conditions: light or radiation study, read-out: IZ
[15] = test system: Bacillus cereus; assay: Antibacterial activity against Bacillus cereus assessed as growth inhibition at 30 ug/disk measured after 24 to 48 hrs by agar disk diffusion method in absence of 24.4 Gy gamma-irradiation; assay type: functional; conditions: light or radiation study, read-out: IZ
[16] = test system: Staphylococcus epidermidis; assay: Antibacterial activity against Staphylococcus epidermidis assessed as growth inhibition at 30 ug/disk measured after 24 to 48 hrs by agar disk diffusion method in presence of 24.4 Gy gamma-irradiation; assay type: functional; conditions: light or radiation study, read-out: IZ
[17] = test system: Staphylococcus epidermidis; assay: Antibacterial activity against Staphylococcus epidermidis assessed as growth inhibition at 30 ug/disk measured after 24 to 48 hrs by agar disk diffusion method in absence of 24.4 Gy gamma-irradiation; assay type: functional; conditions: light or radiation study, read-out: IZ
[18] = test system: Staphylococcus aureus; assay: Antibacterial activity against Staphylococcus aureus assessed as growth inhibition at 30 ug/disk measured after 24 to 48 hrs by agar disk diffusion method in presence of 24.4 Gy gamma-irradiation; assay type: functional; conditions: light or radiation study, read-out: IZ
[19] = test system: Staphylococcus aureus; assay: Antibacterial activity against Staphylococcus aureus assessed as growth inhibition at 30 ug/disk measured after 24 to 48 hrs by agar disk diffusion method in absence of 24.4 Gy gamma-irradiation; assay type: functional; conditions: light or radiation study, read-out: IZ
[20] = test system: Bacillus cereus; assay: Antibacterial activity against Bacillus cereus assessed as growth inhibition at 30 ug/disk measured after 24 to 48 hrs by agar disk diffusion method; assay type: functional; conditions: read-out: IZ
[21] = test system: Staphylococcus epidermidis; assay: Antibacterial activity against Staphylococcus epidermidis assessed as growth inhibition at 30 ug/disk measured after 24 to 48 hrs by agar disk diffusion method; assay type: functional; conditions: read-out: IZ
[22] = test system: Staphylococcus aureus; assay: Antibacterial activity against Staphylococcus aureus assessed as growth inhibition at 30 ug/disk measured after 24 to 48 hrs by agar disk diffusion method; assay type: functional; conditions: read-out: IZ
[23] = test system: Klebsiella pneumoniae; assay: Antibacterial activity against Klebsiella pneumoniae assessed as growth inhibition at 30 ug/disk measured after 24 to 48 hrs by agar disk diffusion method; assay type: functional; conditions: read-out: IZ
[24] = test system: Pseudomonas aeruginosa; assay: Antibacterial activity against Pseudomonas aeruginosa assessed as growth inhibition at 30 ug/disk measured after 24 to 48 hrs by agar disk diffusion method; assay type: functional; conditions: read-out: IZ
[25] = test system: Bacillus cereus; assay: Antibacterial activity against Bacillus cereus assessed as aggregation of cellular material at poles at MIC by scanning electron microscopic analysis; assay type: functional, organism-based
[26] = test system: Bacillus cereus; assay: Antibacterial activity against Bacillus cereus assessed as septum disappearance at MIC by scanning electron microscopic analysis; assay type: functional, organism-based
[27] = test system: Bacillus cereus; assay: Antibacterial activity against Bacillus cereus assessed as shortening of cell surface at MIC by scanning electron microscopic analysis; assay type: functional, organism-based
[28] = test system: Bacillus cereus; assay: Antibacterial activity against Bacillus cereus assessed as elongation of cell surface at MIC by scanning electron microscopic analysis; assay type: functional, organism-based
[29] = test system: Staphylococcus aureus; assay: Antibacterial activity against Staphylococcus aureus assessed as elongation of cell surface at MIC by scanning electron microscopic analysis in presence of 24.4 Gy gamma-irradiation; assay type: functional, organism-based
[30] = test system: Staphylococcus aureus; assay: Antibacterial activity against Staphylococcus aureus assessed as septum disappearance at MIC by scanning electron microscopic analysis; assay type: functional, organism-based
[31] = test system: Staphylococcus aureus; assay: Antibacterial activity against Staphylococcus aureus assessed as deformity of cell surface at MIC by scanning electron microscopic analysis in presence of 24.4 Gy gamma-irradiation; assay type: functional, organism-based
[32] = test system: Bacillus cereus; assay: Antibacterial activity against Bacillus cereus assessed as growth inhibition measured for 24 hrs by agar streak dilution method in absence of 24.4 Gy gamma-irradiation; assay type: functional; conditions: light or radiation study
[33] = test system: Staphylococcus aureus; assay: Antibacterial activity against Staphylococcus aureus assessed as growth inhibition measured for 24 hrs by agar streak dilution method in presence of 24.4 Gy gamma-irradiation; assay type: functional; conditions: light or radiation study
[34] = test system: Staphylococcus aureus; assay: Antibacterial activity against Staphylococcus aureus assessed as growth inhibition measured for 24 hrs by agar streak dilution method in absence of 24.4 Gy gamma-irradiation; assay type: functional; conditions: light or radiation study
[35] = test system: Staphylococcus aureus; assay: Antibacterial activity against Staphylococcus aureus assessed as appearance of projected cellular material and membrane blebbing at MIC by scanning electron microscopic analysis; assay type: functional, organism-based

Row | Compound | inhibition zone (IZ) [2] [mm] | inhibition zone (IZ) [3] [mm] | inhibition zone (IZ) [4] [mm] | inhibition zone (IZ) [5] [mm] | inhibition zone (IZ) [6] [mm] | inhibition zone (IZ) [7] [mm] | inhibition zone (IZ) [8] | inhibition zone (IZ) [9] | inhibition zone (IZ) [10] | growth inhibition (GI) [11] | growth inhibition (GI) [12] | growth inhibition (GI) [13] | other results
1 | NYSTATIN | – | – | – | – | – | – | – | – | – | – | – | – | inhibition zone (IZ) [1]: 7 mm
2 | O=C1CSC(Nc2n[nH]c(=S)s2)=N1 | 11 | 11 | 7 | 7 | 15 | 12 | 9 mm | 7 mm | 10 mm | inactive | inactive | inactive | –
3 | CC(=O)N(C(C)=O)c1n[nH]c(=S)s1 | 20 | 11 | 15 | 11 | 17 | 20 | 20 mm | 13 mm | 20 mm | inactive | inactive | inactive | –
4 | O=C(Nc1ccccc1)Nc1nnc(S)s1 | 9 | 7 | 10 | 7 | 10 | 7 | 7 mm | 9 mm | 10 mm | inactive | inactive | inactive | –
5 | O=C(CCl)Nc1n[nH]c(=S)s1 | – | – | – | – | – | – | inactive | inactive | inactive | inactive | inactive | inactive | –
6 | NCC[C@H](O)C(=O)N[C@@H]1C[C@H](N)[C@@H](O[C@H]2O[C@H](CN)[C@@H](O)[C@H](O)[C@H]2O)[C@H](O)[C@H]1O[C@H]1O[C@H](CO)[C@@H](O)[C@H](N)[C@H]1O [AMIKACIN] | – | – | – | – | – | – | – | – | – | – | – | – | zone of inhibition at 30 µg/disc [14]: 20 mm; zone of inhibition at 30 µg/disc [15]: 20 mm; zone of inhibition at 30 µg/disc [16]: 25 mm; zone of inhibition at 30 µg/disc [17]: 24 mm; zone of inhibition at 30 µg/disc [18]: 17 mm; zone of inhibition at 30 µg/disc [19]: 20 mm; zone of inhibition at 30 µg/disc [20]: 20 mm; zone of inhibition at 30 µg/disc [21]: 25 mm; zone of inhibition at 30 µg/disc [22]: 20 mm; zone of inhibition at 30 µg/disc [23]: 11 mm; zone of inhibition at 30 µg/disc [24]: 15 mm
7 | O=C(Nc1ccccc1)Sc1nnc(N(C(=O)Nc2ccccc2)C(=O)Nc2ccccc2)s1 | 9 | 7 | 12 | 8 | 7 | 7 | 7 mm | 7 mm | 15 mm | inactive | inactive | inactive | –
8 | NS(=O)(=O)c1ccc(NC(=S)Nc2n[nH]c(=S)s2)cc1 | 10 | 7 | 10 | 6 | 10 | 10 | 7 mm | inactive | 9 mm | inactive | inactive | inactive | –
9 | N#Cc1c(-c2ccccc2)cn(-c2n[nH]c(=S)s2)c1N | 25 | 25 | 25 | 12 | 19 | 20 | 20 mm | 17 mm | 25 mm | inactive | inactive | inactive | Activity [25]: Active; Activity [26]: Active; Activity [27]: Active; Activity [28]: Active; Activity [29]: Active; Activity [30]: Active; Activity [31]: Active; MIC [32]: 250 µg/mL (≈ 835 µM); MIC [33]: 250 µg/mL; MIC [34]: 125 µg/mL (≈ 418 µM); Activity [35]: Active
10 | S=c1[nH]nc(/N=C/c2ccccc2Cl)s1 | 16 | 20 | 13 | 13 | 16 | 16 | 22 mm | 12 mm | 20 mm | inactive | inactive | inactive | –
11 | O=C(CNc1n[nH]c(=S)s1)c1ccccc1 | 15 | 15 | 20 | 12 | 20 | 20 | 18 mm | 15 mm | 20 mm | inactive | inactive | inactive | –
12 | O=CN(C=O)c1n[nH]c(=S)s1 | 20 | 13 | 13 | 13 | 16 | 20 | 22 mm | 20 mm | 20 mm | inactive | inactive | inactive | –
